Experiments:
[1] = test system: thrombocytopenic patients with hematological malignancies; experiment: Retrospective study of prophylactic oral EACA in outpatients with chronic transfusion-dependent thrombocytopenia; format: in vivo, human
Excerpt: Patients were managed in the outpatient setting despite their severe thrombocytopenia and received EACA as a substitution for prophylactic, threshold directed platelet transfusion.
Patients with chronic transfusion dependent thrombocytopenia who received prophylactic EACA in the outpatient setting were identified through a computerized database search. After initiation of EACA, prophylactic threshold-driven platelet transfusion was discontinued and patients received only therapeutic platelet transfusion in case of bleeding, except when admitted to the inpatient ward. In the inpatient ward, prophylactic platelets were routinely infused when platelets were <10×10^9/L. The number of platelets transfused in the hospital in the absence of bleeding was censored. Patient demographics, diagnosis, treatment, platelet counts, duration of thrombocytopenia, transfusion history, bleeding and outcomes were captured onto study-specific case report forms. Bleeding was captured regardless of patient's location (out-patient or wards) and retrospectively scored based on the ITP WHO classification: grade 1=petechial bleed, grade 2=clinically mild blood loss, grade 3=gross blood loss requiring transfusion, and grade 4=retinal, cerebral, or debilitating blood loss. Statistics were descriptive.
Patients were monitored in the outpatient clinic, with a CBC obtained at least once a week.

[2] = test system: patients with thrombocytopenic hemorrhage / severely thrombocytopenic patients with hematological malignancies; conditions: cited from earlier work
[3] = ITP WHO bleeding classification grade, median (range)
[4] = severe and refractory thrombocytopenic patients not receiving prophylactic platelet transfusion

With `NCCCCCC(=O)O` [EACA, 6-aminohexanoic acid] the tolerability ([1]; 1 gram orally twice daily, median 47 days) was “overall well tolerated”, the “patients who discontinued EACA due to platelet recovery” value ([1]; 18 of 44 patients) was 41% and the “discontinuation due to intolerance” value ([1]; 44 patients) was “no patients discontinued EACA due to intolerance”. The venous thromboembolic event ([1]; 44 patients) was “No patient experienced a venous thromboembolic event”, the “patients who received platelet transfusions while on EACA” value ([1]; 44 patients, EACA 1 gram orally twice daily, no prophylactic platelet transfusions, 7/44) was 16% and the “median bleeding score for the 19 minor bleeding events” value [1, 3] was 1 (1-2). For the same compound, the “median score for the 10 bleeding episodes treated with transfusion” value [1, 3] was 2 (2-4), the “patients with minor mucocutaneous bleeding that resolved spontaneously and did not require platelet transfusions” value ([1]; eleven of 44 patients) was 25% and the “patients with grade 3 bleeding” value ([1]; hematochezia from a pre-existing rectal ulcer) was 1 patient. The “bleeding episodes treated with platelet transfusions” value ([1]; in 7/44 patients while on EACA) was 10, the “episodes of minor mucocutaneous bleeding that resolved spontaneously” value ([1]; in eleven patients, epistaxis, bruises, oral, vaginal) was 19 episodes and the “grade 2 mucocutaneous bleeds requiring transfusion” value ([1]; in the other 5 patients: hemorrhoid, epistaxis, oral, bladder and vaginal) was 8. For the same compound, the “grade 3-4 bleedings” value ([1]; in the setting of a trauma and from a pre-existing condition) was “Two”, the major spontaneous bleeds ([1]; median platelet counts 8×10^9/L, no prophylactic platelet transfusions, median 47 days, up to 209 days) was “no major spontaneous bleeds were observed” and the “platelet refractory patients with bleeding episodes” value ([1]; of the 10 platelet refractory patients, mucocutaneous (3 grade 1, 5 grade 2 and 1 grade 3)) was 4. The “patients who discontinued EACA due to the onset of hematuria” value ([1]; one of 44 patients) was 2%, the overall safety [1, 4] was “safe” and the “risk of major spontaneous bleeding” value [1, 4] was “low risk of major spontaneous bleeding”. For the same compound, the “patient-reported effect on petechiae and subcutaneous bleeds” value ([1]; shortly after initiation of EACA) was “rapid disappearance of petechiae and resolution of subcutaneous bleeds”, the “median platelet transfusions in transfused patients” value ([1]; summary statement, 16% of patients transfused) was 4 units and the “median number of platelets transfusions received to treat bleeding episodes” value ([1]; the 7 transfused patients, median (range)) was 4 (range, 1-8). The “patients with grade 4 bleeding” value ([1]; traumatic intracranial hemorrhage secondary to motor vehicle accident) was 1 patient, the “effect on transfusion requirements” value ([2]; patients with thrombocytopenic hemorrhage, Kalmadi et al., Cancer 2006) was “reduces transfusion requirements” and the effect on bleeding ([2]; severely thrombocytopenic patients with hematological malignancies, Antun et al., Cancer 2013) was “prevents bleeding”.

From patent US10238614B2, “Uses of 6-aminohexanoic acid to manage bleeding conditions” (EMORY UNIVERSITY, priority 2013, dated 2019)
